Experimental findings from article PMC12974487, “Inhibition of FicD-mediated AMPylation and deAMPylation by isoprenoid diphosphates” (Proceedings of the National Academy of Sciences of the …, 2026) are described below.

Substitutions are numbered along the chain they refer to.

For one assay, the target named is T1, FicD^R371S (Homo sapiens, UniProt Q9BVA6, R371S).
T1 construct: Wild-type FicD (residues 105-458) and all mutants were expressed as N-terminal 6xHis-Sumo fusions; 6xHis-Sumo (N, cleaved yes); made in house; host or cells: Rosetta(DE3) E. coli
T1 sequence (Q9BVA6 105-458 R371S): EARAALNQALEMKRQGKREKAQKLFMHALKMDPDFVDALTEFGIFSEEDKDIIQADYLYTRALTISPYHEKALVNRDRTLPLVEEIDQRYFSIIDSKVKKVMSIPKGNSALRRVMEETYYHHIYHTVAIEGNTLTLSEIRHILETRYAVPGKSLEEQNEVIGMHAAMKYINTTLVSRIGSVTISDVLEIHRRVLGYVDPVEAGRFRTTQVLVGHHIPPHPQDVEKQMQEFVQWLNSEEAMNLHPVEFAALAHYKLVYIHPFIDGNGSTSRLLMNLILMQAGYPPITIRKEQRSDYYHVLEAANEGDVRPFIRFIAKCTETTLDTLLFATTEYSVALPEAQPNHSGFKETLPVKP
Kind of assay: DSF with FicD^R371S variant. It counts as binding. Conditions: addition of 5 mM MgCl2, any concentration tested.

A further assay deals with T2, FicD^E234G, L258D (Homo sapiens, UniProt Q9BVA6, E234G/L258D).
T2 construct: Wild-type FicD (residues 105-458) and all mutants were expressed as N-terminal 6xHis-Sumo fusions; 6xHis-Sumo (N, cleaved yes); made in house; host or cells: Rosetta(DE3) E. coli
T2 sequence (Q9BVA6 105-458 E234G/L258D): T1 sequence (Q9BVA6 105-458 R371S) with E130G, L154D, S267R
Kind of assay: DSF thermal shift with FicD^E234G, L258D. The class given is binding.

Turning to `CC(C)=CCC/C(C)=C/CC/C(C)=C/COP(=O)(O)OP(=O)(O)O` [FPP, farnesyl-pyrophosphate], the “binding to FicD^R371S by DSF” value on FicD^R371S was “did not confer FPP binding”. The “binding to FicD^E234G, L258D by DSF” value is “bound” on FicD^E234G, L258D (absence of MgCl2) and “bound” on FicD^E234G, L258D (presence of 5 mM MgCl2).
